Measured values reported in US20240252488A1 (KOREA RESEARCH INSTITUTE OF CHEMICAL TECHNOLOGY, priority 2020, published 2024).

Legend:
FADD−/− Jurkat cells = experiment: Necroptosis inhibition assay, TNF-α-induced necroptosis (CellTiter-Glo 2.0); type: cell-based, human; details: TNF-α 15 ng/mL; for Necroptosis inhibition assay (Rescue %) 1 μM: compound 1 μM; for Necroptosis inhibition assay (Rescue %) 10 μM: compound 10 μM
How it was run: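 Necroptosis was triggered by TNF-α at 15 ng/mL final following 30 minutes of compound exposure (0.1, 1 or 10 μM final). Incubation ran 20 to 24 hours at 37° C under 5% CO2; cell ATP was then quantified by luminescence.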

MLKL [1] = biological target: T1, MLKL (Homo sapiens, UniProt Q8NB16); experiment: MLKL degradation assay in HepG2 cell line (western blot); type: cell-based; parameters: endogenous in cells; host or cells: HepG2 or HaCaT; details: cell line not given; for Degradation assay (Degradation %) 1 μM: compound 1 μM; for Degradation assay (Degradation %) 10 μM: compound 10 μM
T1 sequence (Q8NB16 1-471): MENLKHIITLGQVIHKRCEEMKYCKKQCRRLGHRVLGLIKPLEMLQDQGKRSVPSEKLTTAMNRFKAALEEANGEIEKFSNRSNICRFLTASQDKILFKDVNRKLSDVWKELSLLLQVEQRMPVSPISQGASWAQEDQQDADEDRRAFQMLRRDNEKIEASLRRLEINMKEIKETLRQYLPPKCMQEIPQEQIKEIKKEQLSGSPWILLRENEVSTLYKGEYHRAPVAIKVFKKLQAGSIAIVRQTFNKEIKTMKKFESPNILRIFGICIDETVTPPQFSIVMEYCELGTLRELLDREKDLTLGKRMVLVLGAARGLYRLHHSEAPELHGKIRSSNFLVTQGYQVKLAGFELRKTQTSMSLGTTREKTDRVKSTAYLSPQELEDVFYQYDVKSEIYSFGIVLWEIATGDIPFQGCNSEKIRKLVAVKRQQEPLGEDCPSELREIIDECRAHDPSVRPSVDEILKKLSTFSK
How it was run: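 After treating HepG2 with test compounds (final 1 μM or 10 μM) for 20-24 h, we lysed cells, equalized protein by BCA and probed MLKL by overnight primary antibody at 4 °C followed by chemiluminescent detection.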

MLKL [2] = biological target: T1, MLKL; experiment: Measurement of binding affinity with MLKL receptor (competitive binding assay, Kd); parameters: made in house; host or cells: HEK 293 cell line (T7 phage in E. coli BL21-derived host is also described)
How it was run: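 HEK 293-expressed, DNA-tagged MLKL; ligand beads blocked with biotin and SeaBlock/1% BSA/0.05% Tween 20/1 mM DTT buffer. Cpd from 111× DMSO stock, 0.9% DMSO final. Eluted kinase by qPCR → Kd.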

Nc1ncc(-c2cnn(C3CCN(CCC4CCN(C(=O)C5CCN(c6cccc7nnn(C8CCC(=O)NC8=O)c(=O)c67)CC5)CC4)CC3)c2)nc1C(=O)OC(C(=O)Nc1ccc(F)cc1)c1ccccc1 (stereo not drawn) [TDH-289, 2-((4-fluorophenyl)amino)-2-oxo-1-phenylethyl 3-amino-6-(1-(1-(2-(1-(1-(3-(2,6-dioxopiperidin-3-yl)-4-oxo-3,4-dihydrobenzo[d][1,2,3]triazin-5-yl)piperidine-4-carbonyl)piperidin-4-yl)ethyl)piperidin-4-yl)-1H-pyrazol-4-yl)pyrazine-2-carboxylate]
Necroptosis inhibition assay (Rescue %) 1 μM (FADD−/− Jurkat cells): 67.46%
Necroptosis inhibition assay (Rescue %) 10 μM (FADD−/− Jurkat cells): 61.24%
Degradation assay (Degradation %) 1 μM (MLKL [1]): 66.33%
Degradation assay (Degradation %) 10 μM (MLKL [1]): 43.03%
Kd (MLKL [2]): 2.2 nM

Nc1ncc(-c2cnn(C3CN(CC4CCN(C(=O)CNc5cccc6c5C(=O)N(C5CCC(=O)NC5=O)C6=O)CC4)C3)c2)nc1C(=O)OC(C(=O)Nc1ccc(F)cc1)c1ccccc1 (stereo not drawn) [TDH-296, 2-((4-fluorophenyl)amino)-2-oxo-1-phenylethyl 3-amino-6-(1-(1-((1-((2-(2,6-dioxopiperidin-3-yl)-1,3-dioxoisoindolin-4-yl)glycyl)piperidin-4-yl)methyl)azetidin-3-yl)-1H-pyrazol-4-yl)pyrazine-2-carboxylate]
Necroptosis inhibition assay (Rescue %) 1 μM (FADD−/− Jurkat cells): 25.58%
Necroptosis inhibition assay (Rescue %) 10 μM (FADD−/− Jurkat cells): 26.91%
Degradation assay (Degradation %) 1 μM (MLKL [1]): 75.78%
Degradation assay (Degradation %) 10 μM (MLKL [1]): 62.01%
Kd (MLKL [2]): 22 nM

Nc1ncc(-c2cnn(C3CCN(CCOC4CCN(C(=O)CC5CCN(c6cccc7c6C(=O)N(C6CCC(=O)NC6=O)C7=O)CC5)CC4)CC3)c2)nc1C(=O)O[C@@H](C(=O)Nc1ccc(F)cc1)c1ccccc1 (stereo partly drawn) [TDH-371, (R)-2-((4-fluorophenyl)amino)-2-oxo-1-phenylethyl 3-amino-6-(1-(1-(2-((1-(2-(1-(2-(2,6-dioxopiperidin-3-yl)-1,3-dioxoisoindolin-4-yl)piperidin-4-yl)acetyl)piperidin-4-yl)oxy)ethyl)piperidin-4-yl)-1H-pyrazol-4-yl)pyrazine-2-carboxylate]
Necroptosis inhibition assay (Rescue %) 1 μM (FADD−/− Jurkat cells): 35.76%
Necroptosis inhibition assay (Rescue %) 10 μM (FADD−/− Jurkat cells): 25.74%
Degradation assay (Degradation %) 1 μM (MLKL [1]): 82.38%
Degradation assay (Degradation %) 10 μM (MLKL [1]): 83.26%
Kd (MLKL [2]): 3.7 nM

Nc1ncc(-c2cnn(C3CCN(C(=O)CC4CCN(C(=O)C5CCN(c6ccc7c(c6)C(=O)N(C6CCC(=O)NC6=O)C7=O)CC5)CC4)CC3)c2)nc1C(=O)O[C@@H](C(=O)Nc1ccc(F)cc1)c1ccccc1 (stereo partly drawn) [TDH-342, (R)-2-((4-fluorophenyl)amino)-2-oxo-1-phenylethyl 3-amino-6-(1-(1-(2-(1-(1-(2-(2,6-dioxopiperidin-3-yl)-1,3-dioxoisoindolin-5-yl)piperidine-4-carbonyl)piperidin-4-yl)acetyl)piperidin-4-yl)-1H-pyrazol-4-yl)pyrazine-2-carboxylate]
Necroptosis inhibition assay (Rescue %) 1 μM (FADD−/− Jurkat cells): 28.05%
Necroptosis inhibition assay (Rescue %) 10 μM (FADD−/− Jurkat cells): 17.55%
Degradation assay (Degradation %) 1 μM (MLKL [1]): 70.74%
Degradation assay (Degradation %) 10 μM (MLKL [1]): 54.03%
Kd (MLKL [2]): 5.8 nM

Nc1ncc(-c2cnn(C3CCN(CCOCCOCCOCCNc4cccc5c4C(=O)N(C4CCC(=O)NC4=O)C5=O)CC3)c2)nc1C(=O)O[C@@H](C(=O)Nc1ccc(F)cc1)c1ccccc1 (stereo partly drawn) [TDH-153, (R)-2-((4-fluorophenyl)amino)-2-oxo-1-phenylethyl 3-amino-6-(1-(1-(2-(2-(2-(2-((2-(2,6-dioxopiperidin-3-yl)-1,3-dioxoisoindolin-4-yl)amino)ethoxy)ethoxy)ethoxy)ethyl)piperidin-4-yl)-1H-pyrazol-4-yl)pyrazine-2-carboxylate]
Necroptosis inhibition assay (Rescue %) 1 μM (FADD−/− Jurkat cells): 37.21%
Necroptosis inhibition assay (Rescue %) 10 μM (FADD−/− Jurkat cells): 16.52%
Degradation assay (Degradation %) 1 μM (MLKL [1]): 37.66%
Degradation assay (Degradation %) 10 μM (MLKL [1]): 24.63%
Kd (MLKL [2]): 9.2 nM

Nc1ncc(-c2cnn(C3CCN(C(=O)COCCOCCNC(=O)CNc4cccc5c4C(=O)N(C4CCC(=O)NC4=O)C5=O)CC3)c2)nc1C(=O)O[C@@H](C(=O)Nc1ccc(F)cc1)c1ccccc1 (stereo partly drawn) [TDH-190, (R)-2-((4-fluorophenyl)amino)-2-oxo-1-phenylethyl 3-amino-6-(1-(1-(2-(2-(2-(2-((2-(2,6-dioxopiperidin-3-yl)-1,3-dioxoisoindolin-4-yl)amino)acetamido)ethoxy)ethoxy)acetyl)piperidin-4-yl)-1H-pyrazol-4-yl)pyrazine-2-carboxylate]
Necroptosis inhibition assay (Rescue %) 1 μM (FADD−/− Jurkat cells): 39.55%
Necroptosis inhibition assay (Rescue %) 10 μM (FADD−/− Jurkat cells): 43.59%
Degradation assay (Degradation %) 10 μM (MLKL [1]): 4.57%
Kd (MLKL [2]): 13 nM

Nc1ncc(-c2cnn(C3CCN(CCC4CCN(C(=O)c5ccc6c(N7CCC(=O)NC7=O)coc6c5)CC4)CC3)c2)nc1C(=O)O[C@@H](C(=O)Nc1ccc(F)cc1)c1ccccc1 [TDH-552, (R)-2-((4-fluorophenyl)amino)-2-oxo-1-phenylethyl 3-amino-6-(1-(1-(2-(1-(3-(2,4-dioxotetrahydropyrimidin-1(2H)-yl)benzofuran-6-carbonyl)piperidin-4-yl)ethyl)piperidin-4-yl)-1H-pyrazol-4-yl)pyrazine-2-carboxylate]
Necroptosis inhibition assay (Rescue %) 1 μM (FADD−/− Jurkat cells; FADD−/− Jurkat cells): 31.97%
Necroptosis inhibition assay (Rescue %) 10 μM (FADD−/− Jurkat cells; FADD−/− Jurkat cells): 6.25%
Degradation assay (Degradation %) 1 μM (MLKL [1]): 92.21%
Degradation assay (Degradation %) 10 μM (MLKL [1]): 75.10%
Kd (MLKL [2]): 0.41 nM

Nc1ncc(-c2cnn([C@@H]3CCN(CCOCCOCCNC(=O)COc4cccc5c4C(=O)N(C4CCC(=O)NC4=O)C5=O)C3)c2)nc1C(=O)OC(C(=O)Nc1ccc(F)cc1)c1ccccc1 (stereo partly drawn) [TDH-269, 2-((4-fluorophenyl)amino)-2-oxo-1-phenylethyl 3-amino-6-(1-((3R)-1-(2-(2-(2-(2-((2-(2,6-dioxopiperidin-3-yl)-1,3-dioxoisoindolin-4-yl)oxy)acetamido)ethoxy)ethoxy)ethyl)pyrrolidin-3-yl)-1H-pyrazol-4-yl)pyrazine-2-carboxylate]
Necroptosis inhibition assay (Rescue %) 1 μM (FADD−/− Jurkat cells): 35.71%
Necroptosis inhibition assay (Rescue %) 10 μM (FADD−/− Jurkat cells): 81.5%
Degradation assay (Degradation %) 10 μM (MLKL [1]): 12.14%
Kd (MLKL [2]): 5.4 nM

Nc1ncc(-c2ccc(N3CCN(CC4CCN(C(=O)CNc5ccc6c(c5)C(=O)N(C5CCC(=O)NC5=O)C6=O)CC4)CC3)nc2)nc1C(=O)OC(C(=O)Nc1ccc(F)cc1)c1ccccc1 (stereo not drawn) [TDH-233, 2-((4-fluorophenyl)amino)-2-oxo-1-phenylethyl 3-amino-6-(6-(4-((1-((2-(2,6-dioxopiperidin-3-yl)-1,3-dioxoisoindolin-5-yl)glycyl)piperidin-4-yl)methyl)piperazin-1-yl)pyridin-3-yl)pyrazine-2-carboxylate]
Necroptosis inhibition assay (Rescue %) 1 μM (FADD−/− Jurkat cells): 23.37%
Necroptosis inhibition assay (Rescue %) 10 μM (FADD−/− Jurkat cells): 4.71%
Degradation assay (Degradation %) 1 μM (MLKL [1]): 15.59%
Degradation assay (Degradation %) 10 μM (MLKL [1]): 16.2%
Kd (MLKL [2]): 160 nM

Nc1ncc(-c2cnn(C3CCN(CCOC4CCN(c5ccc6c(c5)C(=O)N(C5CCC(=O)NC5=O)C6=O)CC4)CC3)c2)nc1C(=O)OC(C(=O)Nc1ccc(F)cc1)c1ccccc1 (stereo not drawn) [TDH-254, 2-((4-fluorophenyl)amino)-2-oxo-1-phenylethyl 3-amino-6-(1-(1-(2-((1-(2-(2,6-dioxopiperidin-3-yl)-1,3-dioxoisoindolin-5-yl)piperidin-4-yl)oxy)ethyl)piperidin-4-yl)-1H-pyrazol-4-yl)pyrazine-2-carboxylate]
Necroptosis inhibition assay (Rescue %) 1 μM (FADD−/− Jurkat cells): 24.05%
Necroptosis inhibition assay (Rescue %) 10 μM (FADD−/− Jurkat cells): 15.37%
Degradation assay (Degradation %) 1 μM (MLKL [1]): 19.16%
Degradation assay (Degradation %) 10 μM (MLKL [1]): 25.97%
Kd (MLKL [2]): 8 nM
